Calls of active or inactive are those of the source. No cut-off for these calls is given here.
Assays:
Solanum lycopersicum [1] = test: Stimulation of germination of Solanum lycopersicum (tomato) at 0.1 mM after 5 days relative to untreated control; type: functional
Lepidium sativum [2] = test: Inhibition of shoot length of Lepidium sativum at 10 uM after 5 days relative to untreated control; type: functional, organism-based
Triticum aestivum [3] = test: Inhibition of germination of Triticum aestivum (wheat) at 0.1 mM after 5 days relative to untreated control; type: functional
Allium cepa [4] = test: Inhibition of root length of Allium cepa (onion) at 0.1 mM after 5 days relative to untreated control; type: functional; details: 120 h
Hordeum vulgare [5] = test: Inhibition of shoot length of Hordeum vulgare (barley) at 0.1 mM after 5 days relative to untreated control; type: functional; details: 120 h
Lactuca sativa [6] = test: Stimulation of root length of Lactuca sativa cv. Nigra (lettuce) at 0.1 mM after 5 days relative to untreated control; type: functional
Lepidium sativum [7] = test: Stimulation of root length of Lepidium sativum at 0.1 mM after 5 days relative to untreated control; type: functional
Lactuca sativa [8] = test: Inhibition of germination of Lactuca sativa cv. Nigra (lettuce) at 0.1 mM after 5 days relative to untreated control; type: functional
Lepidium sativum [9] = test: Inhibition of germination of Lepidium sativum at 0.1 mM after 5 days relative to untreated control; type: functional
Solanum lycopersicum [10] = test: Inhibition of germination of Solanum lycopersicum (tomato) at 10 uM after 5 days relative to untreated control; type: functional, organism-based
Lactuca sativa [11] = test: Stimulation of shoot length of Lactuca sativa cv. Nigra (lettuce) at 0.1 mM after 5 days relative to untreated control; type: functional
Lactuca sativa [12] = test: Inhibition of root length of Lactuca sativa cv. Nigra (lettuce) at 0.1 mM after 5 days relative to untreated control; type: functional
Triticum aestivum [13] = test: Inhibition of root length of Triticum aestivum (wheat) at 0.1 mM after 5 days relative to untreated control; type: functional; details: 120 h
Lepidium sativum [14] = test: Stimulation of germination of Lepidium sativum at 0.1 mM after 5 days relative to untreated control; type: functional
Solanum lycopersicum [15] = test: Inhibition of root length of Solanum lycopersicum (tomato) at 0.1 mM after 5 days relative to untreated control; type: functional; details: 120 h
Hordeum vulgare [16] = test: Stimulation of shoot length of Hordeum vulgare (barley) at 0.1 mM after 5 days relative to untreated control; type: functional
Lactuca sativa [17] = test: Inhibition of shoot length of Lactuca sativa cv. Nigra (lettuce) at 0.1 mM after 5 days relative to untreated control; type: functional
Triticum aestivum [18] = test: Stimulation of germination of Triticum aestivum (wheat) at 0.1 mM after 5 days relative to untreated control; type: functional
Solanum lycopersicum [19] = test: Stimulation of root length of Solanum lycopersicum (tomato) at 0.1 mM after 5 days relative to untreated control; type: functional
Allium cepa [20] = test: Inhibition of germination of Allium cepa (onion) at 0.1 mM after 5 days relative to untreated control; type: functional; details: 120 h
Triticum aestivum [21] = test: Stimulation of shoot length of Triticum aestivum (wheat) at 0.1 mM after 5 days relative to untreated control; type: functional
Allium cepa [22] = test: Stimulation of root length of Allium cepa (onion) at 0.1 mM after 5 days relative to untreated control; type: functional
Lactuca sativa [23] = test: Inhibition of shoot length of Lactuca sativa cv. Roman (lettuce) at 0.1 mM after 5 days relative to untreated control; type: functional; details: 120 h
Hordeum vulgare [24] = test: Inhibition of germination of Hordeum vulgare (barley) at 0.1 mM after 5 days relative to untreated control; type: functional; details: 120 h
Solanum lycopersicum [25] = test: Inhibition of shoot length of Solanum lycopersicum (tomato) at 10 uM after 5 days relative to untreated control; type: functional, organism-based
Lepidium sativum [26] = test: Inhibition of shoot length of Lepidium sativum at 0.1 mM after 5 days relative to untreated control; type: functional
Hordeum vulgare [27] = test: Inhibition of root length of Hordeum vulgare (barley) at 0.1 mM after 5 days relative to untreated control; type: functional; details: 120 h
Hordeum vulgare [28] = test: Stimulation of germination of Hordeum vulgare (barley) at 0.1 mM after 5 days relative to untreated control; type: functional
Lactuca sativa [29] = test: Stimulation of shoot length of Lactuca sativa cv. Roman (lettuce) at 0.1 mM after 5 days relative to untreated control; type: functional
Allium cepa [30] = test: Inhibition of shoot length of Allium cepa (onion) at 0.1 mM after 5 days relative to untreated control; type: functional; details: 120 h
Lactuca sativa [31] = test: Stimulation of germination of Lactuca sativa cv. Roman (lettuce) at 0.1 mM after 5 days relative to untreated control; type: functional
Triticum aestivum [32] = test: Stimulation of root length of Triticum aestivum (wheat) at 0.1 mM after 5 days relative to untreated control; type: functional
Solanum lycopersicum [33] = test: Inhibition of root length of Solanum lycopersicum (tomato) at 10 uM after 5 days relative to untreated control; type: functional, organism-based
Solanum lycopersicum [34] = test: Stimulation of shoot length of Solanum lycopersicum (tomato) at 0.1 mM after 5 days relative to untreated control; type: functional
Lactuca sativa [35] = test: Stimulation of root length of Lactuca sativa cv. Roman (lettuce) at 0.1 mM after 5 days relative to untreated control; type: functional
Lepidium sativum [36] = test: Inhibition of germination of Lepidium sativum at 10 uM after 5 days relative to untreated control; type: functional, organism-based
Allium cepa [37] = test: Stimulation of shoot length of Allium cepa (onion) at 0.1 mM after 5 days relative to untreated control; type: functional
Lepidium sativum [38] = test: Inhibition of root length of Lepidium sativum at 0.1 mM after 5 days relative to untreated control; type: functional
Solanum lycopersicum [39] = test: Inhibition of shoot length of Solanum lycopersicum (tomato) at 0.1 mM after 5 days relative to untreated control; type: functional; details: 120 h
Solanum lycopersicum [40] = test: Inhibition of germination of Solanum lycopersicum (tomato) at 0.1 mM after 5 days relative to untreated control; type: functional; details: 120 h
Lactuca sativa [41] = test: Stimulation of germination of Lactuca sativa cv. Nigra (lettuce) at 0.1 mM after 5 days relative to untreated control; type: functional
Lepidium sativum [42] = test: Stimulation of shoot length of Lepidium sativum at 0.1 mM after 5 days relative to untreated control; type: functional
Hordeum vulgare [43] = test: Stimulation of root length of Hordeum vulgare (barley) at 0.1 mM after 5 days relative to untreated control; type: functional
Lepidium sativum [44] = test: Inhibition of root length of Lepidium sativum at 10 uM after 5 days relative to untreated control; type: functional, organism-based
Allium cepa [45] = test: Stimulation of germination of Allium cepa (onion) at 0.1 mM after 5 days relative to untreated control; type: functional
Lactuca sativa [46] = test: Inhibition of germination of Lactuca sativa cv. Roman (lettuce) at 0.1 mM after 5 days relative to untreated control; type: functional; details: 120 h
Lactuca sativa [47] = test: Inhibition of root length of Lactuca sativa cv. Roman (lettuce) at 0.1 mM after 5 days relative to untreated control; type: functional
Triticum aestivum [48] = test: Inhibition of shoot length of Triticum aestivum (wheat) at 0.1 mM after 5 days relative to untreated control; type: functional

Compound: CO[C@H]1OC(=O)C=C2C1=C[C@H]1OC(=O)[C@@]3(C)CCC[C@@]2(C)[C@@H]13
- Activity (Solanum lycopersicum [1]): >40%
- inhibition (Lepidium sativum [2]): Active
- inhibition at 100 µM (Triticum aestivum [3]; 120 h): > 40%
- inhibition at 100 µM (Allium cepa [4]): > 40%
- inhibition at 100 µM (Hordeum vulgare [5]): > 40%
- Activity (Lactuca sativa [6]): >40%
- Activity (Lepidium sativum [7]): >40%
- inhibition at 100 µM (Lactuca sativa [8]; 120 h): > 40%
- inhibition at 100 µM (Lepidium sativum [9]; 120 h): 20%
- inhibition (Solanum lycopersicum [10]): Active
- Activity (Lactuca sativa [11]): >40%
- inhibition at 100 µM (Lactuca sativa [12]; 120 h): > 40%
- inhibition at 100 µM (Triticum aestivum [13]): > 40%
- Activity (Lepidium sativum [14]): 20%
- inhibition at 100 µM (Solanum lycopersicum [15]): > 40%
- Activity (Hordeum vulgare [16]): >40%
- inhibition at 100 µM (Lactuca sativa [17]; 120 h): > 40%
- Activity (Triticum aestivum [18]): >40%
- Activity (Solanum lycopersicum [19]): >40%
- inhibition at 100 µM (Allium cepa [20]): > 40%
- Activity (Triticum aestivum [21]): >40%
- Activity (Allium cepa [22]): >40%
- inhibition at 100 µM (Lactuca sativa [23]): > 40%
- inhibition at 100 µM (Hordeum vulgare [24]): > 40%
- inhibition (Solanum lycopersicum [25]): Active
- inhibition at 100 µM (Lepidium sativum [26]; 120 h): > 40%
- inhibition at 100 µM (Hordeum vulgare [27]): > 40%
- Activity (Hordeum vulgare [28]): >40%
- Activity (Lactuca sativa [29]): >40%
- inhibition at 100 µM (Allium cepa [30]): > 40%
- Activity (Lactuca sativa [31]): >40%
- Activity (Triticum aestivum [32]): >40%
- inhibition (Solanum lycopersicum [33]): Active
- Activity (Solanum lycopersicum [34]): >40%
- Activity (Lactuca sativa [35]): >40%
- inhibition (Lepidium sativum [36]): Active
- Activity (Allium cepa [37]): >40%
- inhibition at 100 µM (Lepidium sativum [38]; 120 h): > 40%
- inhibition at 100 µM (Solanum lycopersicum [39]): > 40%
- inhibition at 100 µM (Solanum lycopersicum [40]): > 40%
- Activity (Lactuca sativa [41]): >40%
- Activity (Lepidium sativum [42]): >40%
- Activity (Hordeum vulgare [43]): >40%
- inhibition (Lepidium sativum [44]): Active
- Activity (Allium cepa [45]): >40%
- inhibition at 100 µM (Lactuca sativa [46]): > 40%
- inhibition at 100 µM (Lactuca sativa [47]; 120 h): > 40%
- inhibition at 100 µM (Triticum aestivum [48]; 120 h): > 40%

Compound: COC(=O)[C@@]1(C)CCC[C@]2(C)C3=CC(=O)OC[C@]34O[C@@H]4C[C@@H]12
- Activity (Solanum lycopersicum [1]): 20%
- inhibition (Triticum aestivum [3]): inactive
- inhibition at 100 µM (Allium cepa [4]): < 20%
- inhibition at 100 µM (Hordeum vulgare [5]): < 20%
- Activity (Lactuca sativa [6]): inactive
- Activity (Lepidium sativum [7]): inactive
- inhibition (Lactuca sativa [8]): inactive
- inhibition (Lepidium sativum [9]): inactive
- Activity (Lactuca sativa [11]): inactive
- inhibition (Lactuca sativa [12]): inactive
- inhibition at 100 µM (Triticum aestivum [13]): 20%
- Activity (Lepidium sativum [14]): inactive
- inhibition at 100 µM (Solanum lycopersicum [15]): < 20%
- Activity (Hordeum vulgare [16]): <20%
- inhibition (Lactuca sativa [17]): inactive
- Activity (Triticum aestivum [18]): inactive
- Activity (Solanum lycopersicum [19]): <20%
- inhibition at 100 µM (Allium cepa [20]): < 20%
- Activity (Triticum aestivum [21]): inactive
- Activity (Allium cepa [22]): <20%
- inhibition at 100 µM (Lactuca sativa [23]): < 20%
- inhibition at 100 µM (Hordeum vulgare [24]): 20%
- inhibition (Lepidium sativum [26]): inactive
- inhibition at 100 µM (Hordeum vulgare [27]): 20%
- Activity (Hordeum vulgare [28]): 20%
- Activity (Lactuca sativa [29]): <20%
- inhibition at 100 µM (Allium cepa [30]): < 20%
- Activity (Lactuca sativa [31]): <20%
- Activity (Triticum aestivum [32]): 20%
- Activity (Solanum lycopersicum [34]): 20%
- Activity (Lactuca sativa [35]): inactive
- Activity (Allium cepa [37]): <20%
- inhibition (Lepidium sativum [38]): inactive
- inhibition at 100 µM (Solanum lycopersicum [39]): 20%
- inhibition at 100 µM (Solanum lycopersicum [40]): 20%
- Activity (Lactuca sativa [41]): inactive
- Activity (Lepidium sativum [42]): inactive
- Activity (Hordeum vulgare [43]): 20%
- Activity (Allium cepa [45]): <20%
- inhibition at 100 µM (Lactuca sativa [46]): < 20%
- inhibition (Lactuca sativa [47]): inactive
- inhibition (Triticum aestivum [48]): inactive

From ChEMBL document CHEMBL3046208, “Natural and synthetic podolactones with potential use as natural herbicide models” (2000)
